Reference: patent US20220235051A1, “DI-FLUORO AZEPANES AS HBV CAPSID ASSEMBLY MODULATORS” (priority 2019, published 2022)
Read-outs that look alike come from different tables or passages of the source.

Tested on: HBV
Experiment: HBV replication inhibition assay (BDNA assay) in HepG2.2.15 cells
Format: cell-based
Settings: HepG2.2.15 cells, BDNA assay, encapsidated HBV DNA in supernatant at day 6, read-out: HepG2.2.15 EC50 HBV DNA
Procedure: HBV replication inhibition by the disclosed compounds were determined in cells infected or transfected with HBV or cells with stably integrated HBV, such as HepG2.2.15 cells (Sells et al. 1987). In this example, HepG2.2.15 cells were maintained in cell culture medium containing 10% fetal bovine serum (FBS), Geneticin, L-glutamine, penicillin and streptomycin. HepG2.2.15 cells were seeded in 96-well plates at a density of 40,000 cells/well and were treated with serially diluted compounds at a final DMSO concentration of 0.5% either alone or in combination by adding drugs in a checker box format. Cells were incubated with compounds for three days, after which medium was removed and fresh medium containing compounds was added to cells and incubated for another three days. At day 6, supernatant was removed and treated with DNase at 37° C. for 60 minutes, followed by enzyme inactivation at 75° C. for 15 minutes. Encapsidated HBV DNA was released from the virions and covalently linked HBV polymerase by incubating in lysis buffer (Affymetrix QS0010) containing 2.5 μg proteinase K at 50° C. for 40 minutes. HBV DNA was denatured by addition of 0.2 M NaOH and detected using a branched DNA (BDNA) QuantiGene assay kit according to manufacturer recommendation (Affymetrix). HBV DNA levels were also quantified using qPCR, based on amplification of encapsidated HBV DNA extraction with QuickExtraction Solution (Epicentre Biotechnologies) and amplification of HBV DNA using HBV specific PCR probes that can hybridize to HBV DNA and a fluorescently labeled probe for quantitation. In addition, cell viability of HepG2.2.15 cells incubated with test compounds alone or in combination was determined by using CellTitre-Glo reagent according to the manufacturer protocol (Promega). The mean background signal from wells containing only culture medium was subtracted from all other samples, and percent inhibition at each compound concentration was calculated by normalizing to signals from HepG2.2.15 cells treated with 0.5% DMSO using equation E1.
% inhibition=(DMSOave−Xi)/DMSOave×100% E1
where DMSOave is the mean signal calculated from the wells that were treated with DMSO control (0% inhibition control) and Xi is the signal measured from the individual wells. EC50 values, effective concentrations that achieved 50% inhibitory effect, were determined by non-linear fitting using Graphpad Prism software (San Diego, Calif.) and equation E2.
Y=Ymin+(Ymax−Ymin)/(1+10(Log EC50−X)×HillSlope) E2
where Y represents percent inhibition values and X represents the logarithm of compound concentrations.
Selected disclosed compounds were assayed in the HBV replication assay (BDNA assay), as described above, and a representative group of these active compounds is shown in Table 3.

[1] = Hepatitis B virus, HepG2.2.15, 144 h

C#C[C@]1(O)CCC(F)(F)c2c3c(nn2C1)C[C@@H](C)N(C(=O)Nc1ccnc(C(F)F)c1F)C3 (relative stereo) [Example 100, (3R,8S*)-N-(2-Difluoromethyl)-3-fluoropyridin-4-yl)-8-ethynyl-11,11-difluoro-8-hydroxy-3-methyl-3,4,8,9,10,11-hexahydro-1H-pyrido[4′,3′:3,4]pyrazolo[1,5-a]azepine-2(7H)-carboxamide]
EC50 [1]: 168 nM

C[C@@H]1Cc2nn3c(c2CN1C(=O)Nc1ccc(F)c(C#N)c1)C(F)(F)C[C@@H](CO)CC3 (relative stereo) [Example 132]
EC50 [1]: 7 nM

O=C(Nc1ccnc(Br)c1F)N1CCc2nn3c(c2C1)C(F)(F)CCC(O)(COCC(F)F)C3 (single isomer, unassigned) [Example 32, (R*)-N-(2-Bromo-3-fluoropyridin-4-yl)-8-((2,2-difluoroethoxy)methyl)-11,11-difluoro-8-hydroxy-3,4,8,9,10,11-hexahydro-1H-pyrido[4′,3′:3,4]pyrazolo[1,5-a]azepine-2(7H)-carboxamide]
EC50 [1]: 138 nM

O=C(Nc1ccnc(Br)c1F)N1CCc2nn3c(c2C1)C(F)(F)CCC(O)(CF)C3 (single isomer, unassigned) [Example 38, (S*)-N-(2-Bromo-3-fluoropyridin-4-yl)-11,11-di fluoro-8-(fluoromethyl) -8-hydroxy-3,4,8,9,10,11-hexahydro-1H-pyrido[4′,3′:3,4]pyrazolo[1,5-a]azepine-2(7H)-carboxamide]
EC50 [1]: 84 nM

C=CC1(O)CCC(F)(F)c2c3c(nn2C1)CCN(C(=O)Nc1ccc(F)c(C#N)c1)C3 (single isomer, unassigned) [Example 56, (R*)-N-(3-Cyano-4-fluorophenyl)-11,11-difluoro-8-hydroxy-8-vinyl-3,4,8,9,10,11-hexahydro-1H-pyrido[4′,3′:3,4]pyrazolo[1,5-a]azepine-2(7H)-carboxamide]
EC50 [1]: 16 nM

C#CC1(O)CCC(F)(F)c2c3c(nn2C1)CCN(C(=O)Nc1ccnc(Br)c1F)C3 (single isomer, unassigned) [Example 63, (R*)-N-(2-Bromo-3-fluoropyridin-4-yl)-8-ethynyl-11,11-difluoro-8-hydroxy-3,4,8,9,10,11-hexahydro-1H-pyrido[4′,3′:3,4]pyrazolo[1,5-a]azepine-2(7H)-carboxamide]
EC50 [1]: 119 nM

C[C@@H]1Cc2nn3c(c2CN1C(=O)Nc1ccc(F)c(C#N)c1)C(F)(F)CCC(CO)C3 (single isomer, unassigned) [Example 75, (3R,8S*)-N-(3-Cyano-4-fluorophenyl)-11,11-difluoro-8-(hydroxymethyl) -3-methyl-3,4,8,9,10,11-hexahydro-1H-pyrido[4′,3′:3,4]pyrazolo[1,5-a]azepine-2(7H)-carboxamide]
EC50: 5 nM

C[C@@H]1Cc2nn3c(c2CN1C(=O)Nc1ccc(F)c(C#N)c1)C(F)(F)CCC(O)(CF)C3 (single isomer, unassigned) [Example 83, (3R,8R*)-N-(3-Cyano-4-fluorophenyl)-11,11-difluoro-8-(fluoromethyl)-8-hydroxy-3-methyl-3,4,8,9,10,11-hexahydro-1H-pyrido[4′,3′:3,4]pyrazolo[1,5-a]azepine-2(7H)-carboxamide]
EC50 [1]: 10 nM

C[C@@H]1Cc2nn3c(c2CN1C(=O)Nc1ccnc(Br)c1F)C(F)(F)CCC(O)(CF)C3 (single isomer, unassigned) [Example 84, (3R,8R*)-N-(2-Bromo-3-fluoropyridin-4-yl)-11,11-difluoro-8-(fluoromethyl)-8-hydroxy-3-methyl-3,4,8,9,10,11-hexahydro-1H-pyrido[4′,3′:3,4]pyrazolo[1,5-a]azepine-2(7H)-carboxamide]
EC50 [1]: 69 nM

C[C@@H]1Cc2nn3c(c2CN1C(=O)Nc1ccnc(Br)c1F)C(F)(F)CCC(O)(CC#N)C3 (single isomer, unassigned) [Example 89, (3R,8S*)-N-(2-Bromo-3-fluoropyridin-4-yl)-8-(cyanomethyl)-11,11-difluoro-8-hydroxy-3-methyl-3,4,8,9,10,11-hexahydro-1H-pyrido[4′,3′:3,4]pyrazolo[1,5-a]azepine-2(7H)-carboxamide]
EC50 [1]: 28 nM

C#CC1(O)CCC(F)(F)c2c3c(nn2C1)C[C@@H](C)N(C(=O)Nc1ccnc(C(F)F)c1F)C3 (single isomer, unassigned) [Example 97, (3R,8R*)-N-(2-(Difluoromethyl)-3-fluoropyridin-4-yl)-8-ethynyl-11,11-difluoro-8-hydroxy-3-methyl-3,4,8,9,10,11-hexahydro-1H-pyrido[4′,3′:3,4]pyrazolo[1,5-a]azepine-2(7H)-carboxamide]
EC50 [1]: 35 nM

C[C@@H]1Cc2nn3c(c2CN1C(=O)Nc1ccc(F)c(C#N)c1)C(F)(F)CC(O)CC3 (single isomer, unassigned) [Example 119, (3R,9S*)-N-(3-Cyano-4-fluorophenyl)-11,11-difluoro-9-hydroxyl-3-methyl-3,4,8,9,10,11-hexahydro-1H-pyrido[4′,3′:3,4]pyrazolo[1,5-a]azepine-2(7H)-carboxamide]
EC50 [1]: 1 nM

C[C@@H]1Cc2nn3c(c2CN1C(=O)Nc1ccnc(Br)c1F)C(F)=CC(O)CC3 (single isomer, unassigned) [Example 123, (3R,9R*)-N-(2-Bromo-3-fluoropyridin-4-yl)-11-fluoro-9-hydroxy-3-methyl-3,4,8,9-tetrahydro-1H-pyrido[4′,3′:3,4]pyrazolo[1,5-a]azepine-2(7H)-carboxamide]
EC50 [1]: 18 nM

C[C@@H]1Cc2nn3c(c2CN1C(=O)Nc1ccnc(Br)c1F)C(F)(F)CC(O)(CF)CC3 (single isomer, unassigned) [Example 127, (3R,9R*)-N-(2-Bromo-3-fluoropyridin-4-yl)-11,11-difluoro-9-(fluoromethyl)-9-hydroxy-3-methyl-3,4,8,9,10,11-hexahydro-1H-pyrido[4′,3′:3,4]pyrazolo[1,5-a]azepine-2(7H)-carboxamide]
EC50 [1]: 5 nM

C[C@@H]1Cc2nn3c(c2CN1C(=O)Nc1ccc(F)c(C#N)c1)C(F)(F)CC(O)(CF)CC3 (single isomer, unassigned) [Example 128, (3R,9R*)-N-(3-Cyano-4-fluorophenyl)-11,11-difluoro-9-(fluoromethyl)-9-hydroxy-3-methyl-3,4,8,9,10,11-hexahydro-1H-pyrido[4′,3′:3,4]pyrazolo[1,5-a]azepine-2(7H)-carboxamide]
EC50 [1]: 1 nM

O=C(Nc1ccnc(Br)c1F)N1CCc2nn3c(c2C1)C(F)(F)CC(CO)CC3 (single isomer, unassigned) [Example 133, (S*)-N-(2-Bromo-3-fluoropyridin-4-yl)-11,11-difluoro-9-(hydroxymethyl)-3,4,8,9,10,11-hexahydro-1H-pyrido[4′,3′:3,4]pyrazolo[1,5-a]azepine-2(7H)-carboxamide]
EC50 [1]: 38 nM

O=C(Nc1ccnc(Br)c1F)N1CCc2nn3c(c2C1)C(F)(F)CC(CO)CC3 (single isomer, unassigned) [Example 135, (R*)-N-(2-Bromo-3-fluoropyridin-4-yl)-11,11-difluoro-9-(hydroxymethyl)-3,4,8,9,10,11-hexahydro-1H-pyrido[4′,3′:3,4]pyrazolo[1,5-a]azepine-2(7H)-carboxamide]
EC50 [1]: 19 nM

C[C@@]1(O)CCC(F)(F)c2c3c(nn2C1)CCN(C(=O)Nc1ccc(F)c(C#N)c1)C3 (stereo in doubt) [Example 55, N-(3-Cyano-4-fluorophenyl)-11,11-difluoro-8-hydroxy-8-methyl-3,4,8,9,10,11-hexahydro-1H-pyrido[4′,3′:3,4]pyrazolo[1,5-a]azepine-2(7H)-carboxamide]
EC50 [1]: 29 nM

C=C1CCC(F)(F)c2c3c(nn2C1)CCN(C(=O)Nc1ccc(F)c(C#N)c1)C3 [Example 1, N-(3-Cyano-4-fluorophenyl)-11,11-difluoro-8-methylene-3,4,8,9,10,11-hexahydro-1H-pyrido[4′,3′:3,4]pyrazolo[1,5-a]azepine-2(7H)-carboxamide]
EC50 [1]: 44 nM

C=C1CCC(F)(F)c2c3c(nn2C1)CCN(C(=O)Nc1ccc(F)c(C(F)(F)F)c1)C3 [Example 2, 11,11-Difluoro-N-(4-fluoro-3-(trifluoromethyl)phenyl)-8-methylene-3,4,8,9,10,11-hexahydro-1H-pyrido[4′,3′:3,4]pyrazolo[1,5-a]azepine-2(7H)-carboxamide]
EC50 [1]: 51 nM
